What was measured:
S. aureus ATCC 29213 = test: Broth microdilution MIC assay, S. aureus; assay type: cell-based; conditions: Staphylococcus aureus, ATCC29213; broth microdilution, 16-20 hours at 37° C.; read-out: S. aureus 29213 MIC
Procedure: (§1) To determine the ability of test compounds to potentiate the inhibition of the growth of bacterial strains, classic cell based broth microdilution MIC assays were employed. MIC assays are performed according to CLSI methods except where otherwise noted (CLSI, 2011 and CLSI, 2009). The reference strain S. aureus ATCC 29213 and the hyper-permeable E. coli 901C were used to determine the ability of the PBP compounds to inhibit bacterial growth. Briefly, cryo-preserved bacterial cultures of clinical strains are streaked for isolation on appropriate agar medium, in this case Mueller Hinton II agar. Following incubation to allow formation of colonies these plates are sealed with parafilm and stored refrigerated for up to two weeks. For preparation of assay inocula and to ensure low variability, at least 5 colonies are picked from the agar plates with an inoculating loop and aseptically transferred to a culture tube containing 3 mL of Mueller-Hinton Broth (supplemented with divalent cations to required levels based on Manufacturers' certification). The broth culture is grown for 3-5 hours at 37° C. with shaking at 200 rpm. Meanwhile, 2-fold serial dilutions of test compounds are conducted in a 96 well plate with a final volume of 75 μL per well at 2-fold the final desired concentration. After the dilution plates are set up the growing cultures are then diluted in a cuvette containing MH II broth and the optical density is measured at 600 nm. Inocula are diluted such that 75 μL of this culture in Mueller-Hinton Broth results in a starting bacterial concentration of 5×10^5 CFU/mL when added to the dilution plates. The plates are incubated 16-20 hours at 37° C. The MIC is read visually as the lowest concentration well with no bacterial growth.

[1] = system: hyper-permeable E. coli 901C; test: Broth microdilution MIC assay, hyper-permeable E. coli; assay type: cell-based; conditions: Escherichia coli, read-out: E. coli 901C MIC
Procedure: as §1

SMILES | MIC (S. aureus ATCC 29213) [µg/mL] | MIC [1] [µg/mL]
Nc1nc(/C(=N/O)C(=O)N[C@H]2Cc3ccc(O)c(C(=O)O)c3OB2O)cs1 [Example 21, (R,Z)-3-(2-(2-aminothiazol-4-yl)-2-(hydroxyimino)acetamido)-2,7-dihydroxy-3,4-dihydro-2H-benzo[e][1,2]oxaborinine-8-carboxylic Acid] | 64 to 128 | > 128
CNc1nc(/C(=N/O)C(=O)N(C)[C@H]2Cc3cccc(C(=O)O)c3OB2O)cs1 [Example 22, (R,Z)-2-hydroxy-3-(2-(hydroxyimino)-N-methyl-2-(2-(methylamino)thiazol-4-yl)acetamido)-3,4-dihydro-2H-benzo[e][1,2]oxaborinine-8-carboxylic Acid] | > 128 | > 128
CNc1nc(/C(=N/OCc2ccccc2)C(=O)N(C)[C@H]2Cc3cccc(C(=O)O)c3OB2O)cs1 [Example 23, (R,Z)-3-(2-((benzyloxy)imino)-N-methyl-2-(2-(methylamino)thiazol-4-yl)acetamido)-2-hydroxy-3,4-dihydro-2H-benzo[e][1,2]oxaborinine-8-carboxylic Acid] | > 128 | > 128
Nc1nc(/C(=N/O)C(=O)N[C@H]2Cc3ccc(C=O)c(C(=O)O)c3OB2O)cs1 [Example 24, (R,Z)-3-(2-(2-aminothiazol-4-yl)-2-(hydroxyimino)acetamido)-7-formyl-2-hydroxy-3,4-dihydro-2H-benzo[e][1,2]oxaborinine-8-carboxylic Acid] | 64 to 128 | > 128
Nc1nc(/C(=N/O)C(=O)N[C@H]2Cc3ccc(CN4CCCC4)c(C(=O)O)c3OB2O)cs1 [Example 25, (R,Z)-3-(2-(2-aminothiazol-4-yl)-2-(hydroxyimino)acetamido)-2-hydroxy-7-(pyrrolidin-1-ylmethyl)-3,4-dihydro-2H-benzo[e][1,2]oxaborinine-8-carboxylic Acid] | < 64 | > 128
Nc1nc(/C(=N/O)C(=O)N[C@H]2Cc3ccc(/C=C/C(=O)O)c(C(=O)O)c3OB2O)cs1 [Example 27, (R)-3-((Z)-2-(2-aminothiazol-4-yl)-2-(hydroxyimino)acetamido)-7-((E)-2-carboxyvinyl)-2-hydroxy-3,4-dihydro-2H-benzo[e][1,2]oxaborinine-8-carboxylic Acid] | > 128 | 64 to 128
Nc1nc(/C(=N/O)C(=O)N[C@H]2Cc3ccc(CCC(=O)O)c(C(=O)O)c3OB2O)cs1 [Example 28, (R,Z)-3-(2-(2-aminothiazol-4-yl)-2-(hydroxyimino)acetamido)-7-(2-carboxyethyl)-2-hydroxy-3,4-dihydro-2H-benzo[e][1,2]oxaborinine-8-carboxylic Acid] | > 128 | > 128
Nc1nc(/C(=N/O)C(=O)N[C@H]2Cc3cc(F)cc(C(=O)O)c3OB2O)cs1 [Example 32, (R,Z)-3-(2-(2-aminothiazol-4-yl)-2-(hydroxyimino)acetamido)-6-fluoro-2-hydroxy-3,4-dihydro-2H-benzo[e][1,2]oxaborinine-8-carboxylic Acid] | < 64 | < 64
Nc1nc(/C(=N/O)C(=O)N[C@H]2Cc3cc(CN4CCCC4)cc(C(=O)O)c3OB2O)cs1 [Example 33, (R,Z)-3-(2-(2-aminothiazol-4-yl)-2-(hydroxyimino)acetamido)-2-hydroxy-6-(pyrrolidin-1-ylmethyl)-3,4-dihydro-2H-benzo[e][1,2]oxaborinine-8-carboxylic Acid] | < 64 | > 128
Nc1nc(/C(=N/O)C(=O)N[C@H]2Cc3ccc(F)c(C(=O)O)c3OB2O)cs1 [Example 39, (R,Z)-3-(2-(2-aminothiazol-4-yl)-2-(hydroxyimino)acetamido)-7-fluoro-2-hydroxy-3,4-dihydro-2H-benzo[e][1,2]oxaborinine-8-carboxylic Acid] | < 64 | < 64
Nc1nc(/C(=N/O)C(=O)N[C@H]2Cc3c(F)c(F)cc(C(=O)O)c3OB2O)cs1 [Example 40, (R,Z)-3-(2-(2-aminothiazol-4-yl)-2-(hydroxyimino)acetamido)-5,6-difluoro-2-hydroxy-3,4-dihydro-2H-benzo[e][1,2]oxaborinine-8-carboxylic Acid] | < 64 | > 128
Nc1nc(/C(=N/O)C(=O)N[C@H]2Cc3cc(O)cc(C(=O)O)c3OB2O)cs1 [Example 43, (R,Z)-3-(2-(2-aminothiazol-4-yl)-2-(hydroxyimino)acetamido)-2,6-dihydroxy-3,4-dihydro-2H-benzo[e][1,2]oxaborinine-8-carboxylic Acid] | < 64 | 64 to 128
Nc1nc(/C(=N/O)C(=O)N[C@H]2Cc3cc(OC(F)(F)F)cc(C(=O)O)c3OB2O)cs1 [Example 45, (R,Z)-3-(2-(2-aminothiazol-4-yl)-2-(hydroxyimino)acetamido)-2-hydroxy-6-(trifluoromethoxy)-3,4-dihydro-2H-benzo[e][1,2]oxaborinine-8-carboxylic Acid] | < 64 | < 64
Nc1nc(/C(=N/OC2CCNCC2)C(=O)N[C@H]2Cc3cccc(C(=O)O)c3OB2O)cs1 [Example 51, (R,Z)-3-(2-(2-aminothiazol-4-yl)-2-((piperidin-4-yloxy)imino)acetamido)-2-hydroxy-3,4-dihydro-2H-benzo[e][1,2]oxaborinine-8-carboxylic Acid] | > 128 | 64 to 128
Nc1nc(/C(=N/OC2CNC2)C(=O)N[C@H]2Cc3cccc(C(=O)O)c3OB2O)cs1 [Example 53, (R,Z)-3-(2-(2-aminothiazol-4-yl)-2-((azetidin-3-yloxy)imino)acetamido)-2-hydroxy-3,4-dihydro-2H-benzo[e][1,2]oxaborinine-8-carboxylic Acid] | > 128 | 64 to 128
NCCNC(=O)CO/N=C(\C(=O)N[C@H]1Cc2cccc(C(=O)O)c2OB1O)c1csc(N)n1 [Example 54, (R,Z)-3-(2-((2-((2-aminoethyl)amino)-2-oxoethoxy)imino)-2-(2-aminothiazol-4-yl)acetamido)-2-hydroxy-3,4-dihydro-2H-benzo[e][1,2]oxaborinine-8-carboxylic Acid] | > 128 | < 64
CC(C)(O/N=C(\C(=O)N[C@H]1Cc2cccc(C(=O)O)c2OB1O)c1csc(N)n1)C(=O)N[C@@H](CCC(=O)O)C(=O)O [Example 77, (2-((((Z)-1-(2-aminothiazol-4-yl)-2-(((R)-8-carboxy-2-hydroxy-3,4-dihydro-2H-benzo[e][1,2]oxaborinin-3-yl)amino)-2-oxoethylidene)amino)oxy)-2-methylpropanoyl)-L-glutamic Acid] | > 128 | < 64
COc1cc2c(c(C(=O)O)c1)OB(O)[C@@H](NC(=O)/C(=N\OC(C)(C)C(=O)O)c1csc(N)n1)C2 [Example 79, (R,Z)-3-(2-(2-aminothiazol-4-yl)-2-(((2-carboxypropan-2-yl)oxy)imino)acetamido)-2-hydroxy-6-methoxy-3,4-dihydro-2H-benzo[e][1,2]oxaborinine-8-carboxylic Acid] | > 128 | < 64
CC(C)(O/N=C(\C(=O)N[C@H]1Cc2cc(O)cc(C(=O)O)c2OB1O)c1csc(N)n1)C(=O)O [Example 80, (R,Z)-3-(2-(2-aminothiazol-4-yl)-2-(((2-carboxypropan-2-yl)oxy)imino)acetamido)-2,6-dihydroxy-3,4-dihydro-2H-benzo[e][1,2]oxaborinine-8-carboxylic Acid] | > 128 | < 64
COc1cc2c(c(C(=O)O)c1)OB(O)[C@@H](NC(=O)/C(=N\OC(C)(C)C(N)=O)c1csc(N)n1)C2 [Example 81, (R,Z)-3-(2-(((1-amino-2-methyl-1-oxopropan-2-yl)oxy)imino)-2-(2-aminothiazol-4-yl)acetamido)-2-hydroxy-6-methoxy-3,4-dihydro-2H-benzo[e][1,2]oxaborinine-8-carboxylic Acid] | > 128 | < 64
O=C(N[C@H]1Cc2cccc(C(=O)O)c2OB1O)/C(=N\O)c1ccccc1 [Example 83, (R,Z)-2-hydroxy-3-(2-(hydroxyimino)-2-phenylacetamido)-3,4-dihydro-2H-benzo[e][1,2]oxaborinine-8-carboxylic Acid] | < 64 | > 128
Nc1nc(C(=CCCC(=O)O)C(=O)N[C@H]2Cc3cccc(C(=O)O)c3OB2O)cs1 [Example 84, (R)-3-(2-(2-aminothiazol-4-yl)-5-carboxypent-2-enamido)-2-hydroxy-3,4-dihydro-2H-benzo[e][1,2]oxaborinine-8-carboxylic Acid] | > 128 | < 64
Nc1nc(C(=CCCO)C(=O)N[C@H]2Cc3cccc(C(=O)O)c3OB2O)cs1 [Example 85, (R)-3-(2-(2-aminothiazol-4-yl)-5-hydroxypent-2-enamido)-2-hydroxy-3,4-dihydro-2H-benzo[e][1,2]oxaborinine-8-carboxylic Acid] | 64 to 128 | 64 to 128
Nc1nc(/C(=C\c2cccnc2)C(=O)N[C@H]2Cc3cccc(C(=O)O)c3OB2O)cs1 [Example 86, (R,E)-3-(2-(2-aminothiazol-4-yl)-3-(pyridin-3-yl)acrylamido)-2-hydroxy-3,4-dihydro-2H-benzo[e][1,2]oxaborinine-8-carboxylic Acid] | 64 to 128 | < 64

Source: patent US11267826B2, “Penicillin-binding protein inhibitors” (priority 2017, dated 2022)
